Results reported in patent US9901566B1, “Limonoids for treating autoimmune diseases” (Macau University of Science and Technology, priority 2017, dated 2018).
Values joined by “and” are separate entries in the source; they are usually repeats but may differ in a detail not shown here. Identical values can stand only once. “Also recorded” adds a separate entry of the source.

Assays:
[1] = system: ROR-γt luciferase reporter activity; experiment: Lightswitch luciferase reporter assay (ROR Gamma T LUCPorter stable reporter HEK293 cells); format: cell-based; conditions: 16 h
Description: ROR Gamma T LUCPorter™ Stable Reporter cells and LUCPorter™ Vector Control HEK293 cells (Imgenex) were plated in 96-well plates at 5×10^4 cells/well in triplicate in RPMI 1640 medium with 10% fetal bovine serum, penicillin (100 units/mL), streptomycin (100 μg/mL) and puromycin (3 μg/mL) over night. […] Then the complete mixture of luciferase assay reagent (Biocompare, Texas, USA) has been added to the wells and the mixture has been incubated for 30 min at room temperature in the dark. The mixture has been transferred into a 96 well white plates before reading. Finally, each well was read for 2 seconds in a plate luminometer on a Microplate UV/VIS Spectrophotometer (TECAN, Switzerland). Data are obtained from three independent experiments.

[2] = system: human peripheral blood mononuclear cells (PBMCs); experiment: Cell viability (MTT) assay of human PBMCs; format: cell-based; conditions: concentration of up to 50 μM, 72 h
Description: Human peripheral blood mononuclear cells have been isolated from buffy coat. In brief, the buffy coat provided by Macao Blood Transfusion Centre was mixed with normal saline, and then added to 50 mL centrifuge tube containing Ficoll-Pague plus (Amersham Biosciences). The mixture was separated into several layers after centrifuged at 350 g for 35 min. The layer of mononuclear cells has been collected, and then washed twice by normal saline. These cells were be used for the experiments.
Human PBMCs (1×10^5/well) were cultured in 96-well plates in triplicate in RPMI 1640 medium (Gibco, Paisley, UK) with 10% fetal bovine serum (FBS; Gibco), penicillin (100 units/mL) and streptomycin (100 μg/mL), and different concentration of Amotsangin A, B, C and D were added for 72 h. MTT (5 mg/mL) was added to the cells followed by 4 h incubation, followed by addition of solvent (10% sodium dodecyl sulfate (SDS), 50% N, N-dimethyl formamide, pH 7.2) to dissolve the purple precipitate. The absorbance was recorded on a Microplate UV/VIS Spectrophotometer (TECAN, Switzerland) at 570 nm wavelength on the following day. The percentage of cell viability was calculated using the following formula: Cell viability (%)=(ODtreated−ODblank)/(ODcontrol−ODblank)×100.

[3] = system: ROR-γt protein; experiment: Western blotting of ROR-γt expression in ROR-γt-plasmid transfected HEK293 cells; format: cell-based, human; conditions: 24 h
Description: The transfection assay is preformed according to the manufacturer's instruction of lipofectamine LTX (invitrogen, USA). In brief, HEK293 cells obtained from the American Type Culture Collection (ATCC, Manassas, Va., USA) were seeded in 1.5 ml of DMEM growth media plus 10% FBS at 5×10^5 cells per well. Five hundred micro liter Opti-MEM Reduced Serum Media containing 1.25 μg of DNA was added to the cells to be transfected, and then 1.25 μl of PLUS was added into the above diluted Opti-MEM:DNA solution, gently mixed and incubated for another 5 min at room temperature. Subsequently, lipofectamine LTX™ Reagent was added into the above solution, mixed gently and then incubated 30 min at room temperature to form DNA-lipofectamine LTX Reagent complexes. Finally, 500 μl of the DNA-lipofectamine LTX Reagent complexes was directly added to each well containing cells and mixed gently. The cells were incubated at 37° C. in a CO2 incubator for another 24 h.
After incubated for 24 h, the transfected HEK293 cells were treated with different concentrations of Amotsangin A, B, C or D for another 24 h. Then the cells were lysed with RIPA buffer containing 1× protease inhibitor mix (Roche, USA) to harvest total cellular proteins, and the protein concentration was calculated by the bicinchoninic acid (BCA) kit (Pierce, Rockford, Ill.). The total cellular proteins were then subjected to electrophoresis in 10% SDS/PAGE and transferred to nitrocellulose membranes. After blocking with 5% non-fat milk in a Tris-buffered saline-0.1% Tween-20 buffer (TBST), the membrane was subsequently incubated with specific primary antibodies (RORγt antibody (eBioscience, San Diego, USA) or β-actin antibody (Santa Cruz, USA)) and HRP-conjugated secondary antibodies. A chemiluminescence (ECL) detection system was used to detect the antibody-bound proteins on the membrane.

[4] = system: Th2 differentiation; experiment: Flow cytometry, Th2 differentiation of naive CD4+ T cells (IL-4 production); format: cell-based, C57BL/6 mice; conditions: for ratio of the IL-4 producing Th2 differentiation: Th2-polarizing conditions, 3 days
Description: (§1) Naive CD4^+ T cells were sorted by magnetic bead (Miltenyi Biotec) from spleen of C57BL/6 mice (8-14 weeks). CD4^+ T cells (5×10^5 cells/well) were activated with 2 μg/ml of plate-bound anti-mouse CD3 (Biolegend, San Diego, USA), and 5 μg/ml of anti-mouse CD28 (Biolegend) into 24-well-plates. For Th17 differentiation, cells were cultured for 3 days in the presence of 1 ng/ml recombinant human transforming growth factor-β (TGF-β1, Biolegend), 50 ng/ml recombinant mouse interleukin-6 (IL-6, Biolegend), and 5 ng/ml recombinant mouse IL-23 (Biolegend), and 10 μg/ml anti-mouse interleukin-4 (IL-4, Biolegend) with or without the limonoid. For the Th1 differentiation, the cells were cultured for 3 days in the presence of 2 ng/ml recombinant mouse interleukin-2 (IL-2, Biolegend), and 20 μg/ml anti-mouse IL-4 (Biolegend) with or without indicated compounds. For the Th2 differentiation, the cells were cultured for 3 days in the presence of 2 ng/ml recombinant mouse IL-2 (Biolegend), and 20 ng/ml recombinant mouse IL-4 (Biolegend), and 20 μg/ml anti-mouse IFN-γ (Biolegend) with or without compound. For the Treg differentiation, the cells were cultured for 3 days in the presence of 1 ng/ml recombinant human TGF-β1 (Biolegend), and 5 ng/ml recombinant mouse IL-2 (Biolegend) with or without indicated compounds.
(§2) For polarization of Th17, the cells were re-stimulated in complete RPMI 1640 containing 50 ng/ml PMA, 1 μg/ml ionomycin, and 1× Brefeldin A (Biolegend) for 4 h. For polarization of Th1 and Th2, the cells were re-stimulated in complete RPMI 1640 containing 50 ng/ml PMA and 1 μg/ml ionomycin. After 1 h of incubation, 1× Monensin (Biolegend) was added and incubated for 4 h. The cells were collected and washed with Staining Buffer (BD Biosciences, New Jersey, USA), and then stained with PerCP/Cy5.5 anti-mouse CD4 (Biolegend). And then the cells were fixed for 15 min with fixation buffer (BD Biosciences), permeabilized with BD Wash buffer (1×; BD Biosciences), and stained with PE anti-mouse IL-17A (Biolegend), FITC anti-mouse IFN-γ (Biolegend), and APC anti-mouse IL-4 (Biolegend) or APC anti-mouse Foxp3 (eBioscience). The cells were analyzed by BD FACS Aria III, and the acquired data were analyzed using FlowJo software.

[5] = system: Th1 differentiation; experiment: Flow cytometry, Th1 differentiation of naive CD4+ T cells (IFN-γ production); format: cell-based, C57BL/6 mice; conditions: for ratio of the IFN-γ producing Th1 differentiation: Th1-polarizing conditions, 3 days
Description: as §1, §2

[6] = system: Treg differentiation; experiment: Flow cytometry, Treg differentiation of naive CD4+ T cells (Foxp3 production); format: cell-based, C57BL/6 mice; conditions: for Foxp3 producing Treg differentiation: Treg-polarizing conditions, 3 days
Description: as §1, §2

[7] = system: Th17 differentiation; experiment: Flow cytometry, Th17 differentiation of naive CD4+ T cells (IL-17 production); format: cell-based, C57BL/6 mice; conditions: Th17-polarizing conditions; for ratio of the IL-17 production: 3 days; for Th17 cell differentiation (effect in words): up to 25 μM (Amotsangin C up to 10 μM)
Description: as §1, §2

SMILES | ROR-γt luciferase reporter activity ([1]; 5 to 50 μM) | cytotoxicity on human PBMCs [2] | expression of ROR-γt protein ([3]; 5 to 50 μM) | Th2 cell differentiation (effect in words) ([4]; 25 μM) | ratio of the IL-4 producing Th2 differentiation ([4]; 25 μM) [%] | Th1 cell differentiation (effect in words) ([5]; 25 μM) | ratio of the IFN-γ producing Th1 differentiation ([5]; 25 μM) | Treg cell differentiation (effect in words) ([6]; 25 μM) | Foxp3 producing Treg differentiation ([6]; 25 μM) [%] | ratio of the IL-17 production ([7]; 25 μM) [%] | Th17 cell differentiation (effect in words) [7] | ratio of the IL-4 producing Th2 differentiation ([4]; 10 μM) | ratio of the IFN-γ producing Th1 differentiation ([5]; 10 μM) | ratio of the IL-17 production ([7]; 10 μM) [%] | ROR-γt luciferase reporter activity ([1]; 1 to 25 μM) | expression of ROR-γt protein ([3]; 1 to 25 μM) | Th2 cell differentiation (effect in words) ([4]; 10 μM) | Th1 cell differentiation (effect in words) ([5]; 10 μM) | Treg cell differentiation (effect in words) ([6]; 10 μM) | Foxp3 producing Treg differentiation ([6]; 10 μM) [%]
C=C1[C@@H]([C@@]2(C)C=CC(=O)OC(C)(C)[C@@H]2CC(=O)OC)[C@@H](OC(C)=O)[C@H](OC(=O)CC)[C@@]2(C)[C@H](c3ccoc3)C[C@H]3O[C@]132 [Amotsangin D] | dose-dependently reduced; also recorded: reduces | no significant cytotoxicity | reduces | could inhibit | 11.9 | no inhibitory effect; also recorded: slight inhibitory effect | 14.6% | no inhibitory effect | 13.7 | 1.59 | can suppress |  |  |  |  |  |  |  |  | 
C=C1[C@@H]([C@@]2(C)C=CC(=O)OC(C)(C)[C@@H]2CC(=O)OC)[C@@H](OC(C)=O)[C@H](OC(=O)C(C)C)[C@@]2(C)[C@H](c3ccoc3)C[C@H]3O[C@]132 [Amotsangin B] | dose-dependently reduced; also recorded: inhibits | no significant cytotoxicity | reduces | can inhibit | 4.11 | can inhibit | 2.02% | no effect; also recorded: not effect |  | 1.08 | can suppress |  |  |  |  |  |  |  |  | 
C[C@H]1O[C@@H](O[C@H]2[C@@H](O)C[C@H](O[C@H]3[C@@H](O)C[C@H](O[C@H]4CC[C@@]5(C)[C@H](CC[C@@H]6[C@@H]5C[C@@H](O)[C@]5(C)[C@@H](C7=CC(=O)OC7)CC[C@]65O)C4)O[C@@H]3C)O[C@@H]2C)C[C@H](O)[C@@H]1O [digoxin, reference compound] |  |  |  |  |  |  |  |  |  |  |  | 15.0% and 10.2% | 10.8% and 15.3% and 17.0% | 5.43 |  |  |  |  |  | 
C=C1[C@@H]([C@@]2(C)C=CC(=O)OC(C)(C)[C@@H]2CC(=O)OC)[C@@H](OC(C)=O)[C@H](OC(=O)C(O)C(C)CC)[C@@]2(C)[C@H](c3ccoc3)C[C@H]3O[C@]132 (stereo partly drawn) [Amotsangin C] |  | no significant cytotoxicity |  |  |  |  |  |  |  |  | can suppress | 8.7% | 10.2% | 1.91 | dose-dependently reduced; also recorded: reduces | reduced | inhibits | inhibits; also recorded: can inhibit | inhibits | 8.49
C=C1[C@@H]([C@@]2(C)C=CC(=O)OC(C)(C)[C@@H]2CC(=O)OC)[C@@H](OC(C)=O)[C@H](OC(=O)C(C)CC)[C@@]2(C)[C@H](c3ccoc3)C[C@H]3O[C@]132 (stereo partly drawn) [Amotsangin A] | dose-dependently reduced; also recorded: inhibits | no significant cytotoxicity | dose-dependently reduced; also recorded: reduces | no inhibitory effect | 14.8 | no inhibitory effect | could not be changed | no inhibitory effect |  | 4.28 | can suppress |  |  |  |  |  |  |  |  | 
